This is an account of results in patent US20110039762A1, “TARGETED ANTIMICROBIAL MOIETIES” (C3 JIAN, INC., priority 2009, published 2011).

Entries after “also recorded” stand apart in the source; their conditions may differ.

One assay has as its system microorganisms (e.g., bacteria, yeasts, fungi). In words: Targeting peptide binding to target microorganisms (Table 3). The following applies: microorganism the targeting peptide binds; binding in aqueous buffers varied by peptide solubility, preferably 1x PBS.
For “1T-123 (LVRRNAVAGRSDGLAGAEQLDLVRLQGVL; Peptide with targeting and/or antimicrobial activity) [Peptide 1T-123]”, the “Target(s)” value is reported as “S. gordonii”.

Regarding “1T-242 (KQVQNTTLIICGTVLLGILFKSYLKSQKSV; Peptide with targeting and/or antimicrobial activity) [Peptide 1T-242]”, the “Target(s)” value is listed as “F. nucleatum; also recorded: S. sanguinis”.

In the case of “1T-268 (PITPKKEKCGLGTYAPKNPVFSKSRV; Peptide with targeting and/or antimicrobial activity) [Peptide 1T-268]”, the “Target(s)” value is recorded as “F. nucleatum; also recorded: S. mutans; also recorded: S. oralis; also recorded: S. sanguinis”.

As to “PF-054 (VSISRFIGGGHVFNGNNKRNL; Peptide with targeting and/or antimicrobial activity)”, the “Target(s)” value is reported as “S. epidermidis; also recorded: E. coli”.

For “1T-23 (PALVDLSNKEAVWAVLDDHS; Peptide with targeting and/or antimicrobial activity) [Peptide 1T-23]”, the “Target(s)” value is listed as “S. mutans; also recorded: P. aeruginosa”.

In the case of “1T-46 (FSFKQRVMFRKEVERLR; Peptide with targeting and/or antimicrobial activity) [Peptide 1T-46]”, the “Target(s)” value is listed as “S. aureus; also recorded: S. epidermidis; also recorded: C. jeikeium; also recorded: C. xerosis; also recorded: C. striatum; also recorded: P. aeruginosa”.

Consider “1T-286 (LGFFNNKADLVKADTERDNRMSSLKIKDL; Peptide with targeting and/or antimicrobial activity) [Peptide 1T-286]”, for which the “Target(s)” value is “S. sanguinis”.

Turning to “1T-45 (WTKPSFTDLRLGFEVTLYFANR; Peptide with targeting and/or antimicrobial activity) [Peptide 1T-45]”, the “Target(s)” value was “S. aureus; also recorded: S. epidermidis; also recorded: C. striatum; also recorded: P. aeruginosa”.

Consider “1T-3 (VLGIAGGLDAYGELVGGN; Peptide with targeting and/or antimicrobial activity) [Peptide 1T-3]”, for which the “Target(s)” value is given as “S. mutans; also recorded: S. gordonii”.

As for “1T-16 (IDMR; Peptide with targeting and/or antimicrobial activity) [Peptide 1T-16]”, the “Target(s)” value is given as “P. aeruginosa”.

Consider “1T-114 (RQAPGPGLVTITAACSAPGSRSR; Peptide with targeting and/or antimicrobial activity) [Peptide 1T-114]”, for which the “Target(s)” value is reported as “A. naeslundii; also recorded: P. gingivalis; also recorded: S. epidermidis; also recorded: S. gordonii; also recorded: S. mitis; also recorded: S. mutans; also recorded: S. oralis; also recorded: S. sanguinis”.

Regarding “PF-039 (MLEEKNKSL; Peptide with targeting and/or antimicrobial activity)”, the “Target(s)” value is recorded as “P. mirabilis; also recorded: C. jeikeium”.

Regarding “PF-062 (MKKKRINNDILGRMIYSSSIDKRNLYNLKYYE; Peptide with targeting and/or antimicrobial activity)”, the “Target(s)” value is “S. epidermidis and M. luteus and E. coli and P. aeruginosa and MRSA and S. pneumoniae and E. faecalis and C. jeikeium”.

On to “1T-4 (LDAYGELVGGN; Peptide with targeting and/or antimicrobial activity) [Peptide 1T-4]”, for which the “Target(s)” value is “S. gordonii; also recorded: S. sanguinis; also recorded: S. oralis; also recorded: V. atypica; also recorded: L. casei; also recorded: S. mutans”.

Turning to “1T-117 (GPGVVGPAPFSRLPAHALNL; Peptide with targeting and/or antimicrobial activity) [Peptide 1T-117]”, the “Target(s)” value is “S. mutans”.

In the case of “1T-39 (FGFCVWMYQLLAGPPGPPA; Peptide with targeting and/or antimicrobial activity) [Peptide 1T-39]”, the “Target(s)” value is on record as “S. mutans; also recorded: P. aeruginosa”.

For the substance “1T-107 (SPVPRFTAVGGVSRGSP; Peptide with targeting and/or antimicrobial activity) [Peptide 1T-107]”, the “Target(s)” value is “A. naeslundii; also recorded: S. epidermidis; also recorded: S. gordonii; also recorded: S. mitis; also recorded: S. mutans; also recorded: S. oralis; also recorded: S. salivarious; also recorded: S. sanguinis”.

In the case of “1T-109 (VTTNVRQGAGS; Peptide with targeting and/or antimicrobial activity) [Peptide 1T-109]”, the “Target(s)” value is “A. naeslundii; also recorded: S. epidermidis; also recorded: S. gordonii; also recorded: S. mitis; also recorded: S. mutans; also recorded: S. oralis; also recorded: S. salivarious; also recorded: S. sanguinis”.

As for “1T-193 (LMIFDKHANLKYKYGNRSFGVEAIM; Peptide with targeting and/or antimicrobial activity) [Peptide 1T-193]”, the “Target(s)” value is on record as “S. sanguinis”.

For “1T-256 (KGKSLMPLLKQINQWGKLYL; Peptide with targeting and/or antimicrobial activity) [Peptide 1T-256]”, the “Target(s)” value is “S. sanguinis”.

In the case of “1T-218 (KLIFAALGLVFLLIGLRDSRSK; Peptide with targeting and/or antimicrobial activity) [Peptide 1T-218]”, the “Target(s)” value is reported as “F. nucleatum; also recorded: S. sanguinis”.

Staying with this assay, now noted: microorganism(s) the targeting peptide binds; binding in aqueous buffers depending on peptide solubility, preferably 1x PBS.
For “PF-154 (GIKKSKHPSTDDYVVKTTIDSL; Peptide with targeting and/or antimicrobial activity)”, the “Target(s)” value is “S. mutans”.

With “PF-361 (NQVTEGIRLLVE; Peptide with targeting and/or antimicrobial activity)”, the “Target(s)” value was “S. epidermidis; also recorded: E. coli; also recorded: E. faecalis; also recorded: C. jejuni”.

Turning to “MKKLVAALAVIVILTGCVYDPVNYDKIHDQEFQDHLRQNG [PF-252]”, the “Target(s)” value was “S. mutans”.

In the case of “PF-155 (GRYGDDSKERQGRAQ; Peptide with targeting and/or antimicrobial activity)”, the “Target(s)” value is reported as “C. jeikeium”.

Regarding “PF-320 (DSGYYALLENKEERVVWDGEVVANNIFNNLWIVVNKVKTG; Peptide with targeting and/or antimicrobial activity)”, the “Target(s)” value was “S. mutans; also recorded: E. coli”.

In the case of “PF-158 (VRLESRPADLPE; Peptide with targeting and/or antimicrobial activity)”, the “Target(s)” value was “S. epidermidis”.

On to “PF-367 (TKTPGTFTPGTGIQKTAVPL; Peptide with targeting and/or antimicrobial activity)”, for which the “Target(s)” value is “B. subtilis”.

For the substance “PF-132 (RPGDGAAEQGRSR; Peptide with targeting and/or antimicrobial activity)”, the “Target(s)” value is recorded as “S. epidermidis; also recorded: C. jeikeium”.

For the substance “PF-325 (LTIDEKLRNHR; Peptide with targeting and/or antimicrobial activity)”, the “Target(s)” value is given as “S. mutans; also recorded: E. coli”.

Regarding “PF-223 (VKFCIECQTKLERKRR; Peptide with targeting and/or antimicrobial activity)”, the “Target(s)” value is given as “S. epidermidis; also recorded: M. luteus; also recorded: A. baumannii”.

Turning to “PF-216 (ESVDKITEALEEDGFPAKVQ; Peptide with targeting and/or antimicrobial activity)”, the “Target(s)” value is recorded as “S. mutans; also recorded: E. coli”.

For “PF-323 (ARESIEKSHVPVDATIVGVVDSFEVFDE; Peptide with targeting and/or antimicrobial activity)”, the “Target(s)” value was “S. mutans”.

Staying with this assay, now noted: microorganism(s) the targeting peptide binds; peptide binding conducted in aqueous buffers varied by peptide solubility, preferably 1x PBS.
Turning to “PF-568 (TQAVQVKTAQAQQQ; Peptide with targeting and/or antimicrobial activity)”, the “Target(s)” value is given as “S. epidermidis”.

In the case of “PF-438 (QPYFQNQFKKITGYTPLQYRKEKR; Peptide with targeting and/or antimicrobial activity)”, the “Target(s)” value was “S. epidermidis; also recorded: E. coli; also recorded: S. pneumoniae; also recorded: C. jeikeium; also recorded: C. jejuni”.

As for “PF-504 (ILSVELSTKTSASGS; Peptide with targeting and/or antimicrobial activity)”, the “Target(s)” value is reported as “S. mutans; also recorded: E. coli”.

Still in this assay, the particulars now being: peptide binding in aqueous buffers varied by peptide solubility; preferably 1x PBS.
In the case of “PF-716 (HGENHHHKSDEKDNDSSEKKD; Peptide with targeting and/or antimicrobial activity)”, the “Target(s) (microorganisms bound by the targeting peptide)” value is “S. mutans”.

Take “PF-794 (NLYFENQGN; Peptide with targeting and/or antimicrobial activity)”: the “Target(s) (microorganisms bound by the targeting peptide)” value is given as “S. mutans”.

With “PF-707 (IDPESIVTTNNKQDNVDEQ; Peptide with targeting and/or antimicrobial activity)”, the “Target(s) (microorganisms bound by the targeting peptide)” value is recorded as “S. mutans; also recorded: E. coli”.

Regarding “PF-795 (ALHKSGIQVIADWVPDQIYN; Peptide with targeting and/or antimicrobial activity)”, the “Target(s) (microorganisms bound by the targeting peptide)” value is recorded as “S. mutans”.

As for “PF-797 (WYYFDNNGYM; Peptide with targeting and/or antimicrobial activity)”, the “Target(s) (microorganisms bound by the targeting peptide)” value is on record as “S. mutans”.

With “PF-673 (VRRLRM; Peptide with targeting and/or antimicrobial activity)”, the “Target(s) (microorganisms bound by the targeting peptide)” value was “S. mutans; also recorded: E. coli”.

In the case of “PF-720 (SLDMGK; Peptide with targeting and/or antimicrobial activity)”, the “Target(s) (microorganisms bound by the targeting peptide)” value is on record as “S. mutans”.

On to “PF-689 (SAPSG; Peptide with targeting and/or antimicrobial activity)”, for which the “Target(s) (microorganisms bound by the targeting peptide)” value is given as “S. mutans; also recorded: E. coli”.

Consider “PF-768 (GFRGGKRGGARG; Peptide with targeting and/or antimicrobial activity)”, for which the “Target(s) (microorganisms bound by the targeting peptide)” value was “S. epidermidis; also recorded: S. pneumoniae; also recorded: E. faecalis; also recorded: C. jeikeium”.

On to “PF-705 (GEEEGTVAD; Peptide with targeting and/or antimicrobial activity)”, for which the “Target(s) (microorganisms bound by the targeting peptide)” value is “S. mutans; also recorded: E. coli”.
